Assay results: ChEMBL document CHEMBL3886685, “Nitrogen-containing bicyclic aromatic heterocyclic compound” (2016)

The compounds below were run against Cathepsin S (Homo sapiens, UniProt P25774) (assay: Inhibition Assay: 5 μL of a human cathepsin S enzyme (R&D1183-CY-010) was added to a 96-well plate so as to be 20 ng/well. Next, 10-fold dilution of the test compound (a 10 mM DMSO solution) was serially performed with a buffer solution for assay (a solution of 50 mM […], 250 mM sodium chloride and 5 mM dithiothreitol (DTT), adjusted to pH=4.5 with 1 N hydrochloric acid) six times such that the final concentration becomes 0.1 nM to 10 μM then, 20 μL of each of the solutions was added to the wells (the final DMSO concentration was 0.1%), and 25 μL of synthetic substrate VVR-AMC (3211-V manufactured by PEPTIDE […], INC.) was added thereto such that the final concentration becomes 40 μM, thereby starting a enzyme reaction. A fluorescence intensity (an excitation wavelength: 380 nm and a fluorescent wavelength: 460 nm) was measured at 37° C. for 10 minutes immediately after the start of the reaction using a fluorescence spectrophotometer (SPECTRA MAX GEMINI, manu).
Sequence of Cathepsin S (P25774 whole entry): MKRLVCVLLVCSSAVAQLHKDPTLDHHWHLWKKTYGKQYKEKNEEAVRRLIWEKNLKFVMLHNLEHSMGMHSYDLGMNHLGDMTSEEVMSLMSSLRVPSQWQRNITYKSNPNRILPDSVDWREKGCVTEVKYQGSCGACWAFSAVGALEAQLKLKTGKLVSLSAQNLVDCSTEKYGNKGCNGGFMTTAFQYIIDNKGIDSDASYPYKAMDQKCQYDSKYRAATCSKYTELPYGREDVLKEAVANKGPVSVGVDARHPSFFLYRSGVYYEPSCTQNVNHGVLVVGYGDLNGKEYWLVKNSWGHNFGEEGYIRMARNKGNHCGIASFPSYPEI

Compound	IC50
CN1CCC[C@H]1C(=O)N1CCC(CCOc2ncc(-c3nc(C#N)nc4c3ncn4C)cc2C(F)(F)F)CC1	3.1 nM
CN1CCC(C(=O)N2CCC(CCOc3ccc(-c4nc(C#N)nc5c4ncn5C)cc3C(F)(F)F)CC2)CC1	2.7 nM
Cn1ccc2c(-c3ccc(OCCC4CCNC4)c(C(F)(F)F)c3)nc(C#N)nc21 (stereo unspecified)	1.3 nM
Cn1c(C(F)(F)F)nc2c(-c3cnc(OCCC4CCNCC4)c(C(F)(F)F)c3)nc(C#N)nc21	3.3 nM
CN1CCC[C@H]1C(=O)N1CCC(CCOc2ccc(-c3nc(C#N)nc4c3ncn4C)cc2C(F)(F)F)CC1	3.5 nM
Cn1ccc2c(-c3ccc(OCC4CCCNC4)c(C(F)(F)F)c3)nc(C#N)nc21 (stereo unspecified)	3.1 nM
CN1C[C@@H](O)C[C@H]1C(=O)N1CCC(CCOc2ccc(-c3nc(C#N)nc4c3ncn4C)cc2C(F)(F)F)CC1	2.3 nM
Cn1cnc2c(-c3ccc(OCCC4CCN(CCO)CC4)c(C(F)(F)F)c3)nc(C#N)nc21	0.76 nM
Cn1ccc2c(-c3ccc(OCCC4CCN(C(C)(C)C)CC4)c(C(F)(F)F)c3)nc(C#N)nc21	2 nM
N#Cc1nc(-c2ccc(OCCC3CCNCC3)c(C(F)(F)F)c2)c2ccn(C3CCOC3)c2n1 (stereo unspecified)	2.8 nM
Cn1ccc2c(-c3ccc(OCC4(C)CCNCC4)c(C(F)(F)F)c3)nc(C#N)nc21	3.6 nM
Cn1cnc2c(-c3cnc(OCCC4CCNCC4)c(C(F)(F)F)c3)nc(C#N)nc21	1.4 nM
CCN1CCC(CCOc2ccc(-c3nc(C#N)nc4c3ccn4CC3CCOC3)cc2C(F)(F)F)CC1 (stereo unspecified)	3.9 nM
CN1CCC[C@H]1C(=O)N1CCC(COc2ccc(-c3nc(C#N)nc4c3ccn4CC3CCOC3)cc2C(F)(F)F)CC1 (stereo partly specified)	2.2 nM
Cn1ccc2c(-c3ccc(SCCC4CCNCC4)c(C(F)(F)F)c3)nc(C#N)nc21	1.7 nM
Cn1cnc2c(-c3ccc(OCCC4CCN(CC#N)CC4)c(C(F)(F)F)c3)nc(C#N)nc21	2.7 nM
CCN1CCN(C(=O)COc2ccc(-c3nc(C#N)nc4c3ncn4C)cc2C(F)(F)F)CC1	2.6 nM
CCN1CCC(CCOc2ncc(-c3nc(C#N)nc4c3ccn4CC3CCOCC3)cc2C(F)(F)F)CC1	3.2 nM
CN1CCC[C@@H]1C(=O)N1CC[C@@H](OCCOc2ncc(-c3nc(C#N)nc4c3ccn4C)cc2C(F)(F)F)C1	2.4 nM
Cn1ccc2c(-c3ccc(OCCC4CC5CCC(C4)N5)c(C(F)(F)F)c3)nc(C#N)nc21 (stereo unspecified)	3.6 nM
Cn1cnc2c(-c3ccc(OCCC4CCN(CC(=O)N5CCCC5)CC4)c(C(F)(F)F)c3)nc(C#N)nc21	1.6 nM
N#Cc1nc(-c2ccc(OCCC3CCNCC3)c(C#N)c2)c2ccn(CC3CCOC3)c2n1 (stereo unspecified)	3.3 nM
N#Cc1nc(-c2ccc(OCCC3CCN(CCO)CC3)c(C(F)(F)F)c2)c2ccn(CC3CCCO3)c2n1 (stereo unspecified)	3.2 nM
CCOc1ccc(-c2nc(C#N)nc3c2ccn3CC(=O)NC2CCN(C)CC2)cc1C(F)(F)F	2.9 nM
CN1CCC[C@H]1C(=O)N1CCCC(COc2ccc(-c3nc(C#N)nc4c3ccn4C)cc2C(F)(F)F)C1 (stereo partly specified)	3.6 nM
Cn1cnc2c(-c3ccc(OCCC4CCN(C(=O)CO)CC4)c(C(F)(F)F)c3)nc(C#N)nc21	6.1 nM
CCN1CCC(CCOc2ccc(-c3nc(C#N)nc4c3ccn4CC3CCOC3)cc2C#N)CC1 (stereo unspecified)	2.7 nM
Cn1cnc2c(-c3ccc(OCCC4CCNCC4)c(C(F)(F)F)c3)nc(C#N)nc21	1.7 nM
CCN1CCC(CCOc2ncc(-c3nc(C#N)nc4c3ncn4C)cc2C(F)(F)F)CC1	1 nM

More lines, now with the values ahead:

IC50	Compound
1.9 nM	CCN1CCC(CCOc2ncc(-c3nc(C#N)nc4c3ccn4C)cc2C(F)(F)F)CC1
2.1 nM	CN1CCC[C@H]1C(=O)N1CC(COc2ccc(-c3nc(C#N)nc4c3ccn4C)cc2C(F)(F)F)C1
4.8 nM	CN1CCC[C@H]1C(=O)N1CCC(CCOc2ncc(-c3nc(C#N)nc4c3ccn4C)cc2C(F)(F)F)CC1
2.3 nM	Cc1nnc(CN2CCC(CCOc3ccc(-c4nc(C#N)nc5c4ncn5C)cc3C(F)(F)F)CC2)o1
3.4 nM	N#Cc1nc(-c2cnc(OCCC3CCNCC3)c(C(F)(F)F)c2)c2ccn(CC3CCOC3)c2n1 (stereo unspecified)
3.5 nM	N#Cc1nc(-c2cnc(OCCC3CCNCC3)c(C(F)(F)F)c2)c2ccn(CC3CCOCC3)c2n1
2.1 nM	CC(C)N1CCC[C@H]1C(=O)N1CCC(CCOc2ncc(-c3nc(C#N)nc4c3ncn4C)cc2C(F)(F)F)CC1
2.5 nM	Cn1ccc2c(-c3cnc(OCCC4CCNCC4)c(C(F)(F)F)c3)nc(C#N)nc21
2.9 nM	CCN1CCC(CCOc2ccc(-c3nc(C#N)nc4c3ccn4C3COC3)cc2C(F)(F)F)CC1
2.1 nM	Cn1ccc2c(-c3ccc(OCCOC4CCNCC4)c(C(F)(F)F)c3)nc(C#N)nc21
2.2 nM	N#Cc1nc(-c2ccc(OCCC3CCNCC3)c(C(F)(F)F)c2)c2cc[nH]c2n1
3.7 nM	CCN1CCC(CCOc2ccc(-c3nc(C#N)nc4c3ccn4CC)cc2C(F)(F)F)CC1
8.9 nM	Cn1cnc2c(-c3ccc(OCC(=O)N4CCNCC4)c(C(F)(F)F)c3)nc(C#N)nc21
2.1 nM	CCN1CCC(CCOc2ccc(-c3nc(C#N)nc4c3ccn4C)cc2C(F)(F)F)C1 (stereo unspecified)
3.1 nM	N#Cc1nc(-c2cnc(OCCC3CCNCC3)c(C(F)(F)F)c2)c2ccn(CC(=O)N3CCOCC3)c2n1
4.5 nM	Cn1ccc2c(-c3ccc(OCC4CNC4)c(C(F)(F)F)c3)nc(C#N)nc21
3.1 nM	N#Cc1nc(-c2ccc(OCCC3CCN(CCO)CC3)c(C(F)(F)F)c2)c2ccn(CC3CCOC3)c2n1 (stereo unspecified)
2.1 nM	Cn1ccc2c(-c3cnc(OCC4CCN(C(=O)C5CCN(CC(C)(C)O)CC5)CC4)c(C(F)(F)F)c3)nc(C#N)nc21
7.8 nM	CN1CCC[C@H]1C(=O)N1CCC(CCOc2ccc(-c3nc(C#N)nc4c3ccn4CC3CCOC3)cc2C#N)CC1 (stereo partly specified)
2.7 nM	Cn1ccc2c(-c3cnc(OCCC4CCCNC4)c(C(F)(F)F)c3)nc(C#N)nc21 (stereo unspecified)
4 nM	CN(C)C(=O)CN1CCCC(COc2ccc(-c3nc(C#N)nc4c3ccn4C)cc2C(F)(F)F)C1 (stereo unspecified)
1.7 nM	Cn1cnc2c(-c3ccc(OCCC4CCN(CC(=O)N5CC[C@H](F)C5)CC4)c(C(F)(F)F)c3)nc(C#N)nc21
